The source of these data is patent US10414754B2, “Indolizine compounds, a process for their preparation and pharmaceutical compositions containing them” (LES LABORATOIRES SERVIER, priority 2013, dated 2019).

The subject of test [1] is RS4;11 leukaemia tumour line. The test can be described thus: In vitro cytotoxicity (MTT) on RS4;11. The conditions noted are these: Homo sapiens; RS4;11 cells, 48 hours exposure. It is filed as cell-based. The method, then: The cytotoxicity studies were carried out on the RS4;11 leukaemia tumour line.
The cells are distributed onto microplates and exposed to the test compounds for 48 hours.
The cell viability is then quantified by a colorimetric assay, the Microculture Tetrazolium Assay (Cancer Res., 1987, 47, 939-942).

In a further test the target is T1, Bcl-2 protein (histag-Bcl-2, UniProtKB P10415) (Homo sapiens, UniProt P10415).
T1 construct: His tag
Kind of test: Inhibition of Bcl-2 by the fluorescence polarisation technique. The note with it: fluorescence polarisation, 2 hours incubation; read-out: IC50 (nM) Bcl-2 FP. It is filed as binding. The method, then: The fluorescence polarisation tests were carried out on microplates (384 wells). The Bcl-2 protein, labelled (histag-Bcl-2 such that Bcl-2 corresponds to the UniProtKB® primary accession number: P10415), at a final concentration of 2.50×10^−8 M, is mixed with a fluorescent peptide (Fluorescein-[…]), at a final concentration of 1.00×10^−8M in a buffer solution (Hepes 10 mM, NaCl 150 mM, Tween20 0.05%, pH 7.4), in the presence or absence of increasing concentrations of test compounds. After incubation for 2 hours, the fluorescence polarisation is measured.
For orientation: Fluorescence polarisation rises when a labelled molecule tumbles more slowly, as on binding a larger partner.

Structures are written as SMILES. Counter-ions that a name gives are not always drawn.

T1 sequence (P10415 whole entry): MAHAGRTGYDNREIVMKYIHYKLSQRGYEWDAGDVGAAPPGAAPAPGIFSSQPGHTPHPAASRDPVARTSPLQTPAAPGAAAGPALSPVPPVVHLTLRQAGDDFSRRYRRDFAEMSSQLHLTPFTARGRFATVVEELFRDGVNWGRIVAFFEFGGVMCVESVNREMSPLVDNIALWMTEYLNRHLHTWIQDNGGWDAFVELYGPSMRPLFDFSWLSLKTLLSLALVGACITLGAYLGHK

As a reminder, the IC50 is the concentration at which inhibition is half-maximal. As to `O=C(c1cc(-c2cc3c(cc2C(=O)N2Cc4ccccc4C[C@H]2CCN2CCCC(F)(F)C2)OCO3)n2c1CCCC2)N(c1ccccc1)c1ccc(O)cc1` [Example 41, 3-(6-{[(3S)-3-[2-(3,3-Difluoropiperidin-1-yl)ethyl]-3,4-dihydroiso-quinolin-2(1H)-yl]carbonyl}-1,3-benzodioxol-5-yl)-N-(4-hydroxyphenyl)-N-phenyl-5,6,7,8-tetrahydroindolizine-1-carboxamide hydrochloride], the IC50 came to 294 nM in test [1] and 41.5 nM on Bcl-2 protein.
`C[C@@H]1Cc2ccccc2CN1C(=O)c1ccccc1-c1cc(C(=O)N(c2ccc(O)cc2)c2cnc3c(ccn3C)c2)c2ccccn12` [Example 52, N-(4-Hydroxyphenyl)-3-(2-{[(3R)-3-methyl-3,4-dihydroisoquinolin-2(1H)-yl]carbonyl}phenyl)-N-(1-methyl-1H-pyrrolo[2,3-b]pyridin-5-yl)indolizine-1-carboxamide]: the IC50 is 20.9 nM in test [1] and 7.9 nM on Bcl-2 protein.
Consider `C[C@@H]1Cc2ccccc2CN1C(=O)c1cc2c(cc1-c1cc(C(=O)N(c3ccc(O)cc3)c3ccc4c(cnn4C)c3)c3n1CCNC3)OCO2` [Example 11, N-(4-Hydroxyphenyl)-6-(6-{[(3R)-3-methyl-3,4-dihydroisoquinolin-2(1,H)-yl]carbonyl}-1,3-benzodioxol-5-yl)-N-(1-methyl-1H-indazol-5-yl)-1,2,3,4-tetrahydropyrrolo[1,2-a]pyrazine-8-carboxamide hydrochloride], for which the IC50 in test [1] is 83.7 nM; on Bcl-2 protein, 10.9 nM.
`Cc1cc(N(C(=O)c2cc(-c3cc4c(cc3C(=O)N3Cc5ccccc5C[C@H]3C)OCO4)n3ccccc23)c2ccc(O)cc2)cc(C)n1` [Example 39, N-(2,6-Dimethylpyridin-4-yl)-N-(4-hydroxyphenyl)-3-(6-{[(3R)-3-methyl-3,4-dihydroisoquinolin-2(1H)-yl]carbonyl}-1,3-benzodioxol-5-yl)indolizine-1-carboxamide hydrochloride]: the IC50 was 26.3 nM in test [1] and 4.6 nM at Bcl-2 protein.
Consider `C[C@@H]1Cc2ccccc2CN1C(=O)c1cc2c(cc1-c1cc(C(=O)N(c3ccc(O)cc3)c3cncc(F)c3)c3ccccn13)OCO2` [Example 55, N-(5-Fluoropyridin-3-yl)-N-(4-hydroxyphenyl)-3-(6-{[(3R)-3-methyl-3,4-dihydroisoquinolin-2(1H)-yl]carbonyl}-1,3-benzodioxol-5-yl)indolizine-1-carboxamide], for which the IC50 turned out to be 22.8 nM in test [1] and 5.5 nM at Bcl-2 protein.
With `O=C(c1ccc(Cl)cc1-c1cc(C(=O)N(c2ccc(O)cc2)c2ccc3c(ccn3CCN3CCOCC3)c2)c2n1CCCC2)N1CCc2ccccc2C1` [Example 4, 3-[5-Chloro-2-(3,4-dihydroisoquinolin-2(1H)-ylcarbonyl)phenyl]-N-(4-hydroxyphenyl)-N-{1-[2-(morpholin-4-yl)ethyl]-1H-indol-5-yl}-5,6,7,8-tetrahydro-indolizine-1-carboxamide], the 50% inhibitory concentration (IC50) in test [1] worked out at 251 nM; at Bcl-2 protein it was 56.4 nM.
Take `C[C@@H]1Cc2ccccc2CN1C(=O)c1cc2c(cc1-c1cc(C(=O)N(c3ccc(O)cc3)c3ccn4ccnc4c3)c3ccccn13)OCO2` [Example 51, N-(4-Hydroxyphenyl)-N-(imidazo[1,2-a]pyridin-7-yl)-3-(6-{[(3R)-3-methyl-3,4-dihydroisoquinolin-2(1H)-yl]carbonyl}-1,3-benzodioxol-5-yl)indolizine-1-carboxamide hydrochloride]: the IC50 in test [1] was found to be 68.8 nM; on Bcl-2 protein, 4.8 nM.
Take `Cc1cn2ccc(N(C(=O)c3cc(-c4cc5c(cc4C(=O)N4Cc6ccccc6C[C@H]4C)OCO5)n4ccccc34)c3ccc(O)cc3)cc2n1` [Example 53, N-(4-Hydroxyphenyl)-3-(6-{[(3R)-3-methyl-3,4-dihydroisoquinolin-2(1H)-yl]carbonyl}-1,3-benzodioxol-5-yl)-N-(2-methylimidazo[1,2-a]pyridin-7-yl)indolizine-1-carboxamide hydrochloride]: the IC50 in test [1] came out at 70.9 nM; at Bcl-2 protein it was 5.4 nM.
The corresponding values for `COc1ccc(C(=O)N2Cc3ccccc3C[C@H]2CCN2CCOCC2)c(-c2cc(C(=O)N(c3ccccc3)c3ccc(O)cc3)c3n2CCCC3)c1` [Example 28, N-(4-Hydroxyphenyl)-3-(5-methoxy-2-{[(3S)-3-[2-(morpholin-4-yl)ethyl]-3,4-dihydroisoquinolin-2(1H)-yl]carbonyl}phenyl)-N-phenyl-5,6,7,8-tetrahydro-indolizine-1-carboxamide hydrochloride] are 112 nM and 8.8 nM.
With `CCCCN(C(=O)c1cc(-c2cc3c(cc2C(=O)N2CCc4ccccc4C2)OCO3)n2c1CCCC2)c1ccc(O)cc1` [Example 76, N-Butyl-3-[6-(3,4-dihydroisoquinolin-2(1H)-ylcarbonyl)-1,3-benzo-dioxol-5-yl]-N-(4-hydroxyphenyl)-5,6,7,8-tetrahydroindolizine-1-carboxamide], the IC50 in test [1] turned out to be 1630 nM; at Bcl-2 protein, 77.6 nM.
The corresponding values for `Cc1cnn2cc(N(C(=O)c3cc(-c4cc5c(cc4C(=O)N4Cc6ccccc6C[C@H]4C)OCO5)n4ccccc34)c3ccc(O)cc3)cnc12` [Example 86, N-(4-Hydroxyphenyl)-3-[6-[(3R)-3-methyl-3,4-dihydro-1H-isoquinoline-2-carbonyl]-1,3-benzodioxol-5-yl]-N-(3-methylpyrazolo[1,5-a]pyrimidin-6-yl)-indolizine-1-carboxamide hydrochloride] are 20.1 nM and 5 nM.
The corresponding values for `CC[C@@H]1Cc2ccccc2CN1C(=O)c1ccc(Cl)cc1-c1cc(C(=O)N(c2ccc(O)cc2)c2cnc3c(ccn3C)c2)c2ccccn12` [Example 50, 3-(5-Chloro-2-{[(3R)-3-ethyl-3,4-dihydroisoquinolin-2(1H)-yl]-carbonyl}phenyl)-N-(4-hydroxyphenyl)-N-(1-methyl-1H-pyrrolo[2,3-b]pyridin-5-yl)indolizine-1-carboxamide] are 28.2 nM and 2.2 nM.
The corresponding values for `COC1CN(CC[C@@H]2Cc3ccccc3CN2C(=O)c2cc3c(cc2-c2cc(C(=O)N(c4ccccc4)c4ccc(O)cc4)c4n2CCCC4)OCO3)C1` [Example 44, N-(4-Hydroxyphenyl)-3-(6-{[(3S)-3-[2-(3-methoxyazetidin-1-yl)ethyl]-3,4-dihydroisoquinolin-2(1H)-yl]carbonyl}-1,3-benzodioxol-5-yl)-N-phenyl-5,6,7,8-tetrahydroindolizine-1-carboxamide] are 8.56 nM and 2.9 nM.
As for `COc1cc(N(C(=O)c2cc(-c3cc4c(cc3C(=O)N3Cc5ccccc5C[C@H]3C)OCO4)n3ccccc23)c2ccc(O)cc2)ccn1` [Example 56, N-(4-Hydroxyphenyl)-N-(2-methoxypyridin-4-yl)-3-(6-{[(3R)-3-methyl-3,4-dihydroisoquinolin-2(1H)-yl]carbonyl}-1,3-benzodioxol-5-yl)indolizine-1-carboxamide], the 50% inhibitory concentration (IC50) in test [1] was found to be 36.7 nM; at Bcl-2 protein it was 4.7 nM.
In the case of `C[C@@H]1Cc2ccccc2CN1C(=O)c1cc2c(cc1-c1cc(C(=O)N(c3ccc(O)cc3)c3ccncc3F)c3ccccn13)OCO2` [Example 46, N-(3-Fluoropyridin-4-yl)-N-(4-hydroxyphenyl)-3-(6-{[(3R)-3-methyl-3,4-dihydroisoquinolin-2(1H)-yl]carbonyl}-1,3-benzodioxol-5-yl)indolizine-1-carboxamide hydrochloride], the IC50 was found to be 27.9 nM in test [1] and 4.1 nM on Bcl-2 protein.
For `O=C(c1cc(-c2cc(Cl)ccc2C(=O)N2Cc3ccccc3C[C@H]2CCN2CCOCC2)n2c1CCCC2)N(c1ccc(O)cc1)c1cccc(F)c1` [Example 27, 3-(5-Chloro-2-{[(3S)-3-[2-(morpholin-4-yl)ethyl]-3,4-dihydroisoquinolin-2(1H)-yl]carbonyl}phenyl)-N-(3-fluorophenyl)-N-(4-hydroxyphenyl)-5,6,7,8-tetrahydroindolizine-1-carboxamide hydrochloride] the same measures were 44.1 nM and 7.7 nM.
For `C[C@@H]1Cc2ccccc2CN1C(=O)c1cc2c(cc1-c1cc(C(=O)N(c3ccc(O)cc3)c3cnc4ncnn4c3)c3ccccn13)OCO2` [Example 66, N-(4-Hydroxyphenyl)-3-(6-{[(3R)-3-methyl-3,4-dihydroisoquinolin-2(1H)-yl]carbonyl}-1,3-benzodioxol-5-yl)-N-([1,2,4]triazolo[1,5-a]pyrimidin-6-yl)-indolizine-1-carboxamide] the same measures were 42 nM and 4.7 nM.
The corresponding values for `Cc1ccc(N(C(=O)c2cc(-c3cc4c(cc3C(=O)N3Cc5ccccc5C[C@H]3C)OCO4)n3ccccc23)c2ccc(O)cc2)cn1` [Example 54, N-(4-Hydroxyphenyl)-3-(6-{[(3R)-3-methyl-3,4-dihydroisoquinolin-2(1H)-yl]carbonyl}-1,3-benzodioxol-5-yl)-N-(6-methylpyridin-3-yl)indolizine-1-carboxamide hydrochloride] are 45 nM and 6.6 nM.
Turning to `CCCCN(CCCC)C(=O)c1cc(-c2cc3c(cc2C(=O)N2Cc4ccccc4C[C@H]2C)OCO3)n2c1CNCC2` [Example 78, N,N-Dibutyl-6-(6-{[(3R)-3-methyl-3,4-dihydroisoquinolin-2(1H)-yl]-carbonyl}-1,3-benzodioxol-5-yl)-1,2,3,4-tetrahydropyrrolo[1,2-a]pyrazine-8-carboxamide], the results for the IC50 (in test [1]; at Bcl-2 protein) were 1880 nM and 823 nM, respectively.
